Results as given in patent US11185588B2, “Pharmaceutical dosage forms comprising valganciclovir hydrochloride” (Hoffmann-La Roche Inc., priority 2006, dated 2021).

Columns and labels:
[1] = pH dependence of stability in aqueous solution; format: physicochemical; details: monohydrochloride
Protocol: (§1) The solubility of valganciclovir hydrochloride (active pharmaceutical ingredient, API) in aqueous solution is pH dependent. […] Valganciclovir hydrochloride is freely soluble under acidic conditions with a maximum solubility of greater than 200 mg/mL in the pH range of 4-6. The stability of valganciclovir hydrochloride is greatest at a pH<3.8.
The following excipients were used to prepare the formulations of Type I. Citric acid anhydrous was combined with sodium citrate to form the buffer system to ensure an acidic pH. […] Sodium benzoate was used as a preservative agent and sodium saccharin was used as an artificial sweetening agent. Maltose, a crystalline disaccharide carbohydrate, was used as a bulking agent (diluent) and to provide desirable mouth feel and sweetness. Strawberry flavor was used as the flavor of the oral solution.

[2] = physchem; format: physicochemical
Protocol: as §1

[3] = format: physicochemical; details: pH 7
Protocol: as §1

[4] = Hygroscopicity on exposure to relative humidity; format: physicochemical; details: exposed to 80% relative humidity
Description: Valganciclovir hydrochloride is moderately hygroscopic, with only small changes in moisture observed when the valganciclovir hydrochloride is exposed to moderate relative humidity. A weight gain of up to approximately 3% occurs when the valganciclovir hydrochloride is exposed to 80% relative humidity (for a total moisture content of up to approximately 8%). It is reversibly hygroscopic and will either absorb or release moisture under ambient humidity conditions, depending on the water content of the valganciclovir hydrochloride and the relative humidity.

[5] = pKa; format: physicochemical
Protocol: as §1

SMILES: CC(C)[C@H](N)C(=O)OCC(CO)OCn1cnc2c(=O)[nH]c(N)nc21.Cl (stereo partly drawn) [valganciclovir hydrochloride, L-Valine, 2-[(2-amino-1,6-dihydro-6-oxo-9H-purin-9-yl)methoxy]-3-hydroxypropyl ester, monohydrochloride]
- pH at which stability is greatest ([1]; listed as valganciclovir): ≤ 3.8
- pH at which stability is greatest [1]: < 3.8
- solubility ([2]; 25 °C, pH 7, water): 70 mg/mL
- solubility ([2]; aqueous buffer): > 200 mg/mL
- solubility in water ([2]; pH 7): 70 mg/mL
- n-octanol/water partition coefficient [3]: 0.0095
- total moisture content [4]: ≤ 8%
- weight gain [4]: ≤ 3%
- pKa [5]: 7.6
